Common to all, as to test: biochemical
Holding throughout (set-up): DiscoveRx KINOMEscan active site-directed competition binding; percent of control kinase bound to immobilised ligand

Experiment [1] concerns the target T1, FLT3 (Homo sapiens, UniProt P36888).
T1 sequence (P36888 1-993): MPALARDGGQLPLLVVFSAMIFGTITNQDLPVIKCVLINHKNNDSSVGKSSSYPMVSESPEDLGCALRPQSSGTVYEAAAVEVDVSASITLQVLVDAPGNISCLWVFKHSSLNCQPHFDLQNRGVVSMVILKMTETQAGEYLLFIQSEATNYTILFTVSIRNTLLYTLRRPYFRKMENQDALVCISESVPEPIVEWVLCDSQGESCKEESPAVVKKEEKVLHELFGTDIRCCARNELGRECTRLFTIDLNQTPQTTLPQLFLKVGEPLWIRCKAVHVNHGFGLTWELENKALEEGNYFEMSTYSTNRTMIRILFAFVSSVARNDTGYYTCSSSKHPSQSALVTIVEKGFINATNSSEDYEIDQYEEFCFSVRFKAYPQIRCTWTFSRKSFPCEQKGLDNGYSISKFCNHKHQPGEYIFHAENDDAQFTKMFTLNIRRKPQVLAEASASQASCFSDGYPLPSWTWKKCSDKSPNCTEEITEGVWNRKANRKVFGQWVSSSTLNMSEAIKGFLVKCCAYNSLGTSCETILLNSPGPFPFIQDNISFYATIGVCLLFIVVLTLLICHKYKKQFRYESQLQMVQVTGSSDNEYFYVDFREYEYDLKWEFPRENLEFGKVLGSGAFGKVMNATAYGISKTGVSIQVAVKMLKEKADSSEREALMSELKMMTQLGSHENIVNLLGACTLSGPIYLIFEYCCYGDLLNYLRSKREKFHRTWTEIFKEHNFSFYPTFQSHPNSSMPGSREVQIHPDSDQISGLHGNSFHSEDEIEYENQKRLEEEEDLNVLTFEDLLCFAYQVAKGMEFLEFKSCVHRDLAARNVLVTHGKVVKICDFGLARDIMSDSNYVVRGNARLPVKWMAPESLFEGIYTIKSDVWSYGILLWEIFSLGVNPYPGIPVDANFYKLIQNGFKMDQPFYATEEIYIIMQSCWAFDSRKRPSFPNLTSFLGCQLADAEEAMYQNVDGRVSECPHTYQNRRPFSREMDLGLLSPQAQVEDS

The target in experiment [2] is T2, MKK7 (Homo sapiens, UniProt O14733).
T2 construct: gene MAP2K7
T2 sequence (O14733 1-419): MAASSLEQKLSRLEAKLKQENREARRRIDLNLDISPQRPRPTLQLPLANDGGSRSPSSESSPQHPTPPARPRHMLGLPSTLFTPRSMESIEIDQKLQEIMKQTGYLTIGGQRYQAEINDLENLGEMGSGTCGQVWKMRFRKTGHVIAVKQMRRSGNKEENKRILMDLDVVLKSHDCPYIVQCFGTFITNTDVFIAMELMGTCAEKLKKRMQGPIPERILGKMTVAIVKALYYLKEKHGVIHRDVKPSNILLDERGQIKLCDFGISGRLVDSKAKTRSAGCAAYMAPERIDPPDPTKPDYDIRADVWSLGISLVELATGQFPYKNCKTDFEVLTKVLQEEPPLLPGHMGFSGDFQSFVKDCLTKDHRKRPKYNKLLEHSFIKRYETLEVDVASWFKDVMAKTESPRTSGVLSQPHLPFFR

Experiment [3] has as its target T3, PDPK1 (Homo sapiens, UniProt O15530).
T3 sequence (O15530 1-556): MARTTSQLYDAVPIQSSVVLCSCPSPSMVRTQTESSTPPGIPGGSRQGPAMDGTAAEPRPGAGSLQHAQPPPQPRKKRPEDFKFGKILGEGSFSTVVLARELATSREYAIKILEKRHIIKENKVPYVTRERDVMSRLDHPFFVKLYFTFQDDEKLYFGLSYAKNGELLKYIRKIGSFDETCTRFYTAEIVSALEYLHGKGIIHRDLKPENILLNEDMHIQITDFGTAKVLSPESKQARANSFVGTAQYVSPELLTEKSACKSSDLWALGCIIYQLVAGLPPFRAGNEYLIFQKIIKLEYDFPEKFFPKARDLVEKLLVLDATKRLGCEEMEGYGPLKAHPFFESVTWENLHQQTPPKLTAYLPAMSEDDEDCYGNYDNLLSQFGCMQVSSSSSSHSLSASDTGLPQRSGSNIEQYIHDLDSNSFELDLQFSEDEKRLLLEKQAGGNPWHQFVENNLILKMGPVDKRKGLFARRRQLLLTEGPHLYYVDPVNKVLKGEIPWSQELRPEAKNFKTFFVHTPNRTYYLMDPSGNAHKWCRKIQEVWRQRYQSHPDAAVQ

Where [4] appears, read: read-out: Niraparib (MK-4827) / %Ctrl @ 10000nM.
The mark [5] stands for this setting: read-out: Talazoparib (BMN 673) / %Ctrl @ 10000nM.
Where [6] appears, read: read-out: Rucaparib / %Ctrl @ 10000nM, binding competition, % of control.
The mark [7] stands for this setting: read-out: Olaparib / %Ctrl @ 10000nM.

The structures appear in SMILES notation. Where two headings read alike, the source gives them in different places.

With `NC(=O)c1cccc2cn(-c3ccc([C@@H]4CCCNC4)cc3)nc12` [Niraparib], the percent of control binding at 10 µM came out at 70% in experiment [1] (setting [4]), 100% in experiment [2] (setting [4]) and 80% in experiment [3] (setting [4]).
For `Cn1ncnc1[C@H]1c2n[nH]c(=O)c3cc(F)cc(c23)N[C@@H]1c1ccc(F)cc1` [Talazoparib], the percent of control binding at 10 µM is 94% in experiment [1] (setting [5]), 100% in experiment [2] (setting [5]) and 85% in experiment [3] (setting [5]).
Turning to `CNCc1ccc(-c2[nH]c3cc(F)cc4c3c2CCNC4=O)cc1` [Rucaparib], the “Rucaparib / %Ctrl @ 10000nM” value in experiment [1] (binding competition, % of control) was found to be 98%. Also, the percent of control binding at 10 µM in experiment [2] (setting [6]) is 100%; in experiment [3] (setting [6]) it was 97%.
Turning to `O=C(c1cc(Cc2n[nH]c(=O)c3ccccc23)ccc1F)N1CCN(C(=O)C2CC2)CC1` [Olaparib], the percent of control binding at 10 µM came to 100% in experiment [1] (setting [7]), 98% in experiment [2] (setting [7]) and 100% in experiment [3] (setting [7]).

The values are drawn from paper PMC7026418, “The kinase polypharmacology landscape of clinical PARP inhibitors” (Scientific Reports, 2020).
